This is an account of results in patent US12606528B2, “Methods and materials for inhibiting NF-kB activity” (University of Pittsburgh - Of the Commonwealth System of …, priority 2019, dated 2026).

The structures appear in SMILES notation.

The subject of the first assay is NF-κB. Briefly: NF-κB assay: THP1-NF-κB-LUC cells, LPS-stimulated secreted luciferase. In kind it is cell-based. The conditions noted are these: THP1-NF-κB-LUC cells, LPS-stimulated; read-out: IC50 (NF-κB assay). The essentials: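 THP1-NF-κB-LUC cells (25k/well) were pretreated with compounds for 2 h, then stimulated with LPS (10 ng/mL) for 18 h. Secreted luciferase was measured and normalized to vehicle, and IC50 was fitted from the concentration series.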
Consider `NC(=O)CSc1oc(-c2ccc(F)cc2)nc1S(=O)(=O)c1ccc(Cl)cc1` [BC18551], for which the IC50 was > 10 µM.
Consider `CSc1oc(-c2ccc(F)cc2)nc1S(=O)(=O)c1ccc(Br)cc1` [BC18552], for which the IC50 is > 10 µM.
Consider `CCC(C)S(=O)(=O)c1oc(-c2ccc(F)cc2)nc1S(=O)(=O)c1ccccc1` (centres unmarked) [BC18553], for which the IC50 was < 0.1 µM.
Same read-out and setting: the figure for `CC(C)S(=O)(=O)c1oc(-c2ccc(F)cc2)nc1S(=O)(=O)c1ccc(F)cc1` [BC18554] is < 0.1 µM.
On the same count and under the same terms, the figure for `CC(C)CS(=O)(=O)c1oc(-c2ccc(F)cc2)nc1S(=O)(=O)c1ccc(Cl)cc1` [BC18555] is < 0.1 µM.
Same read-out and setting: for `CCSc1oc(-c2ccccc2)nc1S(=O)(=O)c1ccc(F)cc1` [BC18556] the value was 1 to 10 µM; for `CCCCSc1oc(-c2ccccc2)nc1S(=O)(=O)c1ccc(Cl)cc1` [BC18557], 1 to 10 µM.
As to `CCCSc1oc(-c2ccc(C)cc2)nc1S(=O)(=O)c1ccc(Cl)cc1` [BC18558], the IC50 is > 10 µM.
Same read-out and setting: the figure for `CCCCSc1oc(-c2ccc(F)cc2)nc1S(=O)(=O)c1ccccc1` [BC18559] is 1 to 10 µM; for `CCSc1oc(-c2ccc(F)cc2)nc1S(=O)(=O)c1ccc(C)cc1` [BC18560] it is 1 to 10 µM; for `CCSc1oc(-c2ccc(F)cc2)nc1S(=O)(=O)c1ccc(F)cc1` [BC18561] it is 1 to 10 µM.
Still for that read-out and setting: the figure for `CSc1oc(-c2ccc(F)cc2)nc1S(=O)(=O)c1ccc(Cl)cc1` [BC18562] is > 10 µM; for `CCSc1oc(-c2ccc(F)cc2)nc1S(=O)(=O)c1ccc(Br)cc1` [BC18563] it is > 10 µM; for `O=S(=O)(Cc1ccccc1F)c1oc(-c2ccc(F)cc2)nc1S(=O)(=O)c1ccccc1` [BC18564] it is < 0.1 µM.
For the compound `CCCCS(=O)(=O)c1oc(-c2ccc(F)cc2)nc1S(=O)(=O)c1ccc(F)cc1` [BC18565], the IC50 is < 0.1 µM.
Same read-out and setting: the figure for `CS(=O)(=O)c1oc(-c2ccc(F)cc2)nc1S(=O)(=O)c1ccc(Br)cc1` [BC18566] is < 0.1 µM; for `CCCSc1oc(-c2ccccc2)nc1S(=O)(=O)c1ccc(F)cc1` [BC18567] it is > 10 µM.
Still for that read-out and setting: for `CCC(C)Sc1oc(-c2ccccc2)nc1S(=O)(=O)c1ccc(Cl)cc1` (centres unmarked) [BC18568] the value was 1 to 10 µM; for `Cc1ccc(-c2nc(S(=O)(=O)c3ccc(Cl)cc3)c(SC(C)C)o2)cc1` [BC18569], 1 to 10 µM; for `CCC(C)Sc1oc(-c2ccc(F)cc2)nc1S(=O)(=O)c1ccccc1` (centres unmarked) [BC18570], 1 to 10 µM.
The same measure, in the same setting: for `CCCSc1oc(-c2ccc(F)cc2)nc1S(=O)(=O)c1ccc(C)cc1` [BC18571] the value was 1 to 10 µM; for `CCCSc1oc(-c2ccc(F)cc2)nc1S(=O)(=O)c1ccc(F)cc1` [BC18572], > 10 µM; for `CCSc1oc(-c2ccc(F)cc2)nc1S(=O)(=O)c1ccc(Cl)cc1` [BC18573], 1 to 10 µM.
With `CCCSc1oc(-c2ccc(F)cc2)nc1S(=O)(=O)c1ccc(Br)cc1` [BC18574], the IC50 was > 10 µM.
Still for that read-out and setting: for `CC(C)CS(=O)(=O)c1oc(-c2ccc(F)cc2)nc1S(=O)(=O)c1ccccc1` [BC18575] the value was < 0.1 µM; for `CCC(C)S(=O)(=O)c1oc(-c2ccc(F)cc2)nc1S(=O)(=O)c1ccc(F)cc1` (centres unmarked) [BC18576], < 0.1 µM; for `CCS(=O)(=O)c1oc(-c2ccc(F)cc2)nc1S(=O)(=O)c1ccc(Br)cc1` [BC18577], < 0.1 µM.
In the case of `CC(C)CSc1oc(-c2ccccc2)nc1S(=O)(=O)c1ccc(F)cc1` [BC18578], the IC50 fell in the range of 1 to 10 µM.
On to `CC(C)CSc1oc(-c2ccccc2)nc1S(=O)(=O)c1ccc(Cl)cc1` [BC18579], for which the IC50 was in the range of 1 to 10 µM.
Still for that read-out and setting: for `Cc1ccc(-c2nc(S(=O)(=O)c3ccc(Cl)cc3)c(SCC(C)C)o2)cc1` [BC18580] the value was > 10 µM; for `O=S(=O)(c1ccccc1)c1nc(-c2ccc(F)cc2)oc1SCc1ccc(F)cc1` [BC18581], 1 to 10 µM.
Take `Cc1ccc(S(=O)(=O)c2nc(-c3ccc(F)cc3)oc2SC(C)C)cc1` [BC18582]: the IC50 lay within 1 to 10 µM.
Still for that read-out and setting: the figure for `CC(C)Sc1oc(-c2ccc(F)cc2)nc1S(=O)(=O)c1ccc(F)cc1` [BC18583] is 1 to 10 µM; for `CCCSc1oc(-c2ccc(F)cc2)nc1S(=O)(=O)c1ccc(Cl)cc1` [BC18584] it is > 10 µM; for `CC(C)Sc1oc(-c2ccc(F)cc2)nc1S(=O)(=O)c1ccc(Br)cc1` [BC18585] it is 1 to 10 µM.
In the case of `Cc1ccc(S(=O)(=O)c2nc(-c3ccc(F)cc3)oc2S(=O)(=O)C(C)C)cc1` [BC18586], the IC50 is < 0.1 µM.
Still for that read-out and setting: for `CC(C)CS(=O)(=O)c1oc(-c2ccc(F)cc2)nc1S(=O)(=O)c1ccc(F)cc1` [BC18587] the value was < 0.1 µM.
Same read-out and setting: for `CCCS(=O)(=O)c1oc(-c2ccc(F)cc2)nc1S(=O)(=O)c1ccc(Br)cc1` [BC18588] the value was < 0.1 µM.

The same assay, now with this note: THP1-NF-κB-LUC cells; compounds 2 hours before LPS (10 ng/mL) for 18 hours; secreted luciferase; read-out: IC50 (NF-κB assay).
Regarding `Cc1cc2c(cc1S(=O)(=O)Nc1ccc(CCC(=O)O)cc1)OCC(=O)N2` [BC181300], the IC50 is > 10 µM.
Still for that read-out and setting: for `COc1cc(NS(=O)(=O)c2cc3c(cc2C)NC(=O)CO3)cc(OC)c1` [BC181301] the value was > 10 µM; for `CCOc1ccc(NS(=O)(=O)c2cc3c(cc2C)NC(=O)CO3)cc1` [BC181302], < 0.1 µM; for `CC(=O)c1cccc(NS(=O)(=O)c2cc3c(cc2C)NC(=O)CO3)c1` [BC181303], < 0.1 µM.
For the compound `CCCCN(c1ccccc1)S(=O)(=O)c1cc2c(cc1C)NC(=O)CO2` [BC181304], the IC50 is > 10 µM.
For the compound `Cc1ccc(NS(=O)(=O)c2cc3c(cc2C)NC(=O)CO3)cc1Cl` [BC181305], the IC50 was < 0.1 µM.
As for `CC(=O)N1CCOc2cc(S(=O)(=O)Nc3ccc(Br)c(C)c3)c(C)cc21` [BC181306], the IC50 lay within 1 to 10 µM.
Still for that read-out and setting: for `COc1cccc(NS(=O)(=O)c2cc3c(cc2C)N(C)CCO3)c1` [BC181308] the value was > 10 µM; for `Cc1ccc(NS(=O)(=O)c2cc3c(cc2C)N(C)CCO3)cc1F` [BC181309], > 10 µM.
Turning to `Cc1cc2c(cc1S(=O)(=O)Nc1ccccc1)OCC(=O)N2` [BC181310], the IC50 is < 0.1 µM.
`Cc1cc2c(cc1S(=O)(=O)Nc1cc(F)ccc1F)OCC(=O)N2` [BC181311]: the IC50 is < 0.1 µM.
On the same count and under the same terms, the figure for `Cc1cc2c(cc1S(=O)(=O)Nc1cccc(C)c1C)OCC(=O)N2` [BC181312] is 1 to 10 µM.
Same read-out and setting: for `Cc1cc2c(cc1S(=O)(=O)Nc1c(C)cccc1C(C)C)OCC(=O)N2` [BC181313] the value was > 10 µM; for `CSc1cccc(NS(=O)(=O)c2cc3c(cc2C)NC(=O)CO3)c1` [BC181314], < 0.1 µM.
Still for that read-out and setting: for `Cc1cc2c(cc1S(=O)(=O)Nc1ccc(CC(F)(F)F)cc1)OCC(=O)N2` [BC181315] the value was < 0.1 µM.
In the case of `Cc1cc2c(cc1S(=O)(=O)N(C)c1ccc(Br)cc1)OCC(=O)N2` [BC181316], the IC50 is > 10 µM.
Same read-out and setting: the figure for `COc1cccc(NS(=O)(=O)c2cc3c(cc2C)N(C(C)=O)CCO3)c1` [BC181317] is > 10 µM; for `CC(=O)N1CCOc2cc(S(=O)(=O)Nc3c(C)cccc3C)c(C)cc21` [BC181318] it is > 10 µM.
Take `COc1ccc(NS(=O)(=O)c2cc3c(cc2C)N(C)CCO3)cc1` [BC181319]: the IC50 was > 10 µM.
The same measure, in the same setting: for `Cc1cccc(NS(=O)(=O)c2cc3c(cc2C)N(C)CCO3)c1` [BC181320] the value was > 10 µM.
For the compound `Cc1cc2c(cc1S(=O)(=O)Nc1cccc(Br)c1)OCC(=O)N2` [BC181321], the IC50 was < 0.1 µM.
In the case of `COc1ccc(NS(=O)(=O)c2cc3c(cc2C)NC(=O)CO3)cc1OC` [BC181322], the IC50 is > 10 µM.
`Cc1cc2c(cc1S(=O)(=O)Nc1c(C)cccc1C)OCC(=O)N2` [BC181323]: the IC50 was > 10 µM.
Still for that read-out and setting: the figure for `COc1cc(NS(=O)(=O)c2cc3c(cc2C)NC(=O)CO3)cc(OC)c1OC` [BC181324] is > 10 µM.
Same read-out and setting: the figure for `CCc1cccc(CC)c1NS(=O)(=O)c1cc2c(cc1C)NC(=O)CO2` [BC181325] is > 10 µM; for `COc1ccc(C)cc1NS(=O)(=O)c1cc2c(cc1C)NC(=O)CO2` [BC181326] it is > 10 µM.
The same measure, in the same setting: the figure for `COc1ccc(N(C)S(=O)(=O)c2cc3c(cc2C)NC(=O)CO3)c(OC)c1` [BC181327] is > 10 µM.
In the case of `COc1ccc(NS(=O)(=O)c2cc3c(cc2C)N(C(C)=O)CCO3)cc1` [BC181328], the IC50 is > 10 µM.
Same read-out and setting: the figure for `CCc1ccc(NS(=O)(=O)c2cc3c(cc2C)N(C(C)=O)CCO3)cc1` [BC181329] is 1 to 10 µM.
In the case of `Cc1cc2c(cc1S(=O)(=O)Nc1ccc(Cl)cc1)OCCN2C` [BC181330], the IC50 fell in the range of 1 to 10 µM.
Still for that read-out and setting: the figure for `Cc1cc2c(cc1S(=O)(=O)Nc1ccc(F)c(Cl)c1)OCC(=O)N2` [BC181331] is < 0.1 µM; for `CCNS(=O)(=O)c1cc2c(cc1C)NC(=O)CO2` [BC181332] it is > 10 µM; for `COc1ccc(NS(=O)(=O)c2cc3c(cc2C)NC(=O)CO3)cc1` [BC181333] it is 1 to 10 µM.
Turning to `CCOC(=O)c1cccc(NS(=O)(=O)c2cc3c(cc2C)NC(=O)CO3)c1` [BC181334], the IC50 was in the range of 1 to 10 µM.
The same measure, in the same setting: for `Cc1ccc(C)c(NS(=O)(=O)c2cc3c(cc2C)NC(=O)CO3)c1` [BC181335] the value was > 10 µM; for `Cc1cc2c(cc1S(=O)(=O)Nc1ccc(C(C)C)cc1)OCC(=O)N2` [BC181336], < 0.1 µM.
In the case of `CCOc1ccc(OCC)c(NS(=O)(=O)c2cc3c(cc2C)NC(=O)CO3)c1` [BC181337], the IC50 is > 10 µM.
Same read-out and setting: for `CCCN(c1ccccc1OC)S(=O)(=O)c1cc2c(cc1C)NC(=O)CO2` [BC181338] the value was 1 to 10 µM; for `CC(=O)N1CCOc2cc(S(=O)(=O)Nc3ccccc3Br)c(C)cc21` [BC181339], > 10 µM; for `CCOc1ccc(NS(=O)(=O)c2cc3c(cc2C)N(C(C)=O)CCO3)cc1` [BC181340], > 10 µM.
Same read-out and setting: the figure for `Cc1cc2c(cc1S(=O)(=O)Nc1ccc(F)cc1F)OCCN2C` [BC181341] is 1 to 10 µM.

The assay is the same for the next values; noted with them: read-out: IC50 (NF-κB assay).
Turning to `COc1cc(NS(=O)(=O)c2cc3c(cc2C)N(C(C)=O)CCO3)cc(OC)c1` [BC181307], the IC50 is > 10 µM.
